Assay results from patent publication US8791258B2, “Pro-fluorescent probes” (The Regents of the University of California, priority 2008, dated 2014).

What was measured:
[1] = cited from earlier work
HeLa cells = type: cell-based; conditions: 5 μM probe; 50 nM MitoTracker Deep Red, 500 nM LysoTracker Red
Description: 100 μM H2O2 was then added to one of the petri dishes. At 20 minutes, 50 nM MitoTracker Deep Red, 500 nM Lysotracker Red, and 1 μM Hoechst 33342 were added to both dishes. After an additional 20 minutes (40 minute stimulation total), the two coverslips were put in a single, new petri dish filled with fresh DPBS and confocal images were taken (3.2 μsec pixel time, 100% laser power for 514 line, 4.1% laser power for the 633 line, 26% laser power for the 543 line, scanned using 12-bit multi-track scan mode using a constant receiver gain). Shown above are signals from MitoPY1 (a), MitoTracker Deep Red (b), LysoTracker Red (c), an overlay of MitoTracker Deep Red and MitoPY1 (d), Hoechst (e), and a brightfield image (f) of cells not treated with H2O2, as well as signals from MitoPY1 (g), MitoTracker Deep Red (h), LysoTracker Red (i), an overlay of MitoTracker Deep Red and MitoPY1 (j), Hoechst (k), and a brightfield image (l) of cells treated with H2O2. A 20 μm scale bar shown for all images.
HeLa cells incubated with 5 μM MitoPY1 for 60 min at 37° C. and imaged with MitoPY1 (a), MitoTracker Red and Hoechst (overlay, b), and MitoPY1 with MitoTracker Red (overlay, c). HeLa cells incubated with 5 μM MitoPY1 for 60 min at 37° C. with 100 μM H2O2 added for the final 40 min and imaged with MitoPY1 (d), MitoTracker Red and Hoechst (overlay, e), MitoPY1 and MitoTracker Red (overlay, f), and brightfield (g) with 20 μm scale bar. HeLa cells incubated with 5 μM MitoPY1 for 60 min at 37° C. and imaged with MitoPY1 (h), MitoTracker Red and Hoechst (overlay, i), and MitoPY1 with MitoTracker Red (overlay, j). HeLa cells incubated for 24 h with 1 mM paraquat, then washed and incubated with 5 μM MitoPY1 for 60 min at 37° C. and imaged with MitoPY1 (k), MitoTracker Red and Hoechst (overlay, l), MitoPY1 and MitoTracker Red (overlay, m), and brightfield (n) with 20 μm scale bar.
HEK293 cells were cultured in DMEM (Invitrogen) supplemented with 10% fetal bovine serum (FBS, Hyclone) and glutamine (2 mM). CHO.K1 cells were cultured in DMEM with F-12 supplements, glutamax (Invitrogen), and 5% FBS. Cos-7 cells were cultured in DMEM with high glucose, glutamax, 10% FBS, and non-essential amino acids (Invitrogen). HeLa cells were cultured in DMEM with high glucose, glutamax, and 10% FBS. Two days before imaging, cells were passaged and plated on 18-mm glass coverslips. For all experiments, solutions of dyes (from 5 mM stocks in DMSO) were made in DBPS with calcium chloride and magnesium chloride (Sigma). H2O2 was added by bath application to the medium from a 100 mM aqueous stock. For paraquat treatment, HeLa cells were cultured as described above. One day prior to imaging, 1 mM paraquat was added to cells from a 0.5 M stock solution in water. An equal amount of water was added to control cells at the same time. Cells were then incubated at 37° C., 5% CO2. After 24 hours, the media was exchanged for DPBS with 5 μM dye and incubated for 1 hour.
Confocal fluorescence imaging studies were performed with a Zeiss LSM510 NLO Axiovert 200 laser scanning microscope and a 63× Achroplan IR water-immersion objective lens. Excitation of PY-loaded cells at 510 nm was carried out with an Ar laser and emission was collected using a META detector between 527-580 nm. MitoTracker Deep Red was excited with a 633-nm line and emission was collected between 666-698 nm. LysoTracker Red was excited with a 543-nm line and emission was collected between 580-644 nm. Excitation of Hoechst 33342 was carried out using a MaiTai two-photon laser at 780-nm pulses (mode-locked Ti:sapphire laser, Tsunami Spectra Physics) and emission was collected between 452-537 nm. Image analysis was performed in Adobe Photoshop.
MitoPY1 was tested for its ability to both target the mitochondria and respond to H2O2 in living biological systems. […] Again, co-staining with MitoTracker confirms that the dye is retained in the mitochondria and detects localized rises in H2O2 concentrations.

[2] = Absorption and emission properties, fluorescence quantum yield; type: physicochemical; conditions: 20 mM HEPES, pH 7; for fluorescence quantum yield Φ: by reference to fluorescein; for extinction coefficient ε at 510 nm: λabs 510 nm
Description: (§1) Millipore water was used to prepare all aqueous solutions. All spectroscopic measurements were performed in 20 mM HEPES buffer, pH 7. Absorption spectra were recorded using a Varian Cary 50 spectrophotometer (Walnut Creek, Calif.). Fluorescence spectra were recorded using a Photon Technology International Quanta Master 4 L-format scanning spectrofluorometer (Lawrenceville, N.J.) equipped with an LPS-220B 75-W xenon lamp and power supply, A-1010B lamp housing with integrated igniter, switchable 814 photon-counting/analog photomultiplier detection unit, and MD5020 motor driver. Samples for absorption and fluorescence measurements were contained in 1-cm×1-cm quartz cuvettes (1.4- or 3.5-mL volume, Starna, Atascadero, Calif.).
as §1, with “recorded on” for “recorded using”, “Creek, Calif.) and fluorescence” for “Creek, Calif.). Fluorescence”, “and emission” for “and fluorescence”, “cuvettes (1.5-mL” for “cuvettes (1.4- or 3.5-mL”, “Calif.). Fluorescence quantum yields were determined by reference to fluorescein in 0.1M NaOH (Φ=0.95).” for “Calif.).”

HEK cells = test: Confocal and two-photon fluorescence imaging of H2O2 in live HEK cells
Description: (a) Fluorescence image of HEK cells incubated with 5 μM PF1 for 5 min at 25° C. (b) Fluorescence image of PF1-stained HEK cells treated with 100 μM H2O2 for 11 min at 25° C. Excitation was provided at 488 nm, and emission was collected in a window from 505 to 580 nm. Scale bar=27 μm.
(a) Fluorescence image of HEK cells incubated with 10 μM PR1 for 10 min at 25° C. (b) Fluorescence image of PR1-stained HEK cells treated with 100 μM H2O2 for 30 min at 25° C. Excitation was provided at 543 nm, and emission was collected in a window from 548 to 644 nm. Scale bar=18 μm.
(a) Fluorescence image of HEK cells incubated with 10 μM PX1 for 2-3 min at 25° C. (b) Fluorescence image of PX1-stained HEK cells treated with 100 μM H2O2 for 30 min at 25° C. Two-photon excitation was provided at 704 nm, and emission was collected in a window from 420 to 500 nm. Scale bar=18 μm.
HEK 293T cells were cultured in Dulbecco's Modified Eagle Medium (DMEM, Invitrogen, Carlsbad, Calif.) supplemented with 10% Fetal Bovine Serum (FBS, Invitrogen), glutamine (2 mM), and penicillin/streptomycin (50 μg/ml, Invitrogen). One day before imaging, cells were passed and plated on 18-mm glass coverslips coated with poly-L-lysine (50 μg/ml, Sigma, St. Louis, Mo.). Immediately before the experiments, cells were washed with PBS buffer, incubated with the probe in PBS, and imaged.
Confocal fluorescence imaging was performed with a Zeiss LSM510 META laser scanning microscope containing an Axioplan 2 MOT upright microscope and a 40× water-immersion objective lens. Excitation of PF1-loaded cells at 488 nm was carried out with an argon ion laser, and emission was Collected in a window from 505 nm to 580 nm using a META detection system. Excitation of PR1-loaded cells at 543 nm was carried out with a HeNe laser, and emission was collected in a window from 548 nm to 644 nm using a META detector. PF1 or PR1 were incubated with live cell samples for 5 to 10 min. Addition of H2O2 (10 to 100 μM) to cell samples was performed directly on the microscope stage by bath application to the media.
Two-photon fluorescence imaging of PX1 was carried out using an inverted Zeiss LSM510 Axiovert 200M microscope with a NeoFLUAR 40×/1.3 NA oil-immersion objective lens. Samples were excited by 704-nm pulses from a mode-locked Ti:Sapphire laser (Tsunami, SpectraPhysics, 120-150 fs pulse width, 80 MHz repetition rate). The emission light was filtered with a 80-nm wide bandpass filter centered at 460 nm (460BP40, Chroma) and detected with the non-descanned detector (NDD) of the LSM510.

[3] = Fluorescence response to various ROS (H2O2 selectivity); conditions: 20 mM HEPES, pH 7, 25° C.
Description: (§2) FIG. 7 is the fluorescence response of 5 μM PF1 to various ROS (10 mM O2^−, 100 μM for all other ROS). .OH and .Ot-Bu were generated by reaction of Fe^2+ with H2O2 or tert-butyl hydroperoxide (TBHP), respectively. NO was delivered using S-nitrosocysteine (SNOC). Spectra were acquired in 20 mM HEPES, pH 7, and all data were obtained after incubation with the appropriate ROS at 25° C. for 1 h. Collected emission was integrated between 460 and 700 nm (λexc=450 nm).
FIG. 8 is the fluorescence response of 5 μM PR1 to various ROS (10 mM O2^−, 100 μM for all other ROS). .OH and .O^tBu were generated by reaction of Fe^2+ with H2O2 or tert-butyl hydroperoxide (TBHP), respectively. NO was delivered using S-nitrosocysteine (SNOC). Spectra were acquired in 20 mM HEPES, pH 7, and all data were obtained after incubation with the appropriate ROS at 25° C. for 30 min. Collected emission was integrated between 570 and 800 nm (λexc=560 nm).
as §2, with “FIG. 9” for “FIG. 7”, “of 10” for “of 5”, “μM PX1” for “μM PF1”, “between 370” for “between 460”, “and 600” for “and 700”, “nm (λexc=350” for “nm (λexc=450”
as §1
FIG. 7, FIG. 8 and FIG. 9 compare the relative reactivities of boronate-based PF1, PR1, and PX1, respectively, toward various ROS.

O=C(O)c1ccccc1C1c2cc(Cl)c(O)cc2Oc2cc(O)c(Cl)cc21 [DCFH, 2′,7′-dichlorodihydrofluorescein]
fluorescence increase by reaction with .OH or peroxynitrite (ONOO−) ([1]; .OH or ONOO−): ca. 7000 fold
fluorescence increase upon addition of H2O2, previously reported probes ([1]; H2O2): 190 fold
fluorescence increase with NO ([1]; NO): 150 fold
fluorescence increase with O2− ([1]; O2−): 67 fold
fluorescence increase upon light-induced autoxidation ([1]; light-induced autoxidation): 2000 fold

CC(=O)N1CCN(c2ccc3c(c2)Oc2cc(B4OC(C)(C)C(C)(C)O4)ccc2C32OC(=O)c3ccccc32)CC1 (centres unmarked) [ContPY1]
subcellular localization (co-staining with MitoTracker Deep Red, LysoTracker Red) (HeLa cells): only MitoPY1 targets the mitochondria
fluorescence quantum yield Φ [2]: 0.018
extinction coefficient ε at 515 nm of the corresponding rhodol formed with H2O2 ([2]; after reaction with H2O2, 515 nm): 38,200 M^−1 cm^−1
fluorescence quantum yield Φ of the corresponding rhodol formed with H2O2 ([2]; after reaction with H2O2, λem 543 nm): 0.388
extinction coefficient ε at 404 nm ([2]; λabs 404 nm): 4,100 M^−1 cm^−1
extinction coefficient ε at 490 nm ([2]; λabs 490 nm): 15,600 M^−1 cm^−1
extinction coefficient ε at 510 nm [2]: 16,130 M^−1 cm^−1

O=C1OC2(c3ccc(O)cc3Oc3cc(N4CCN(CCCC[P+](c5ccccc5)(c5ccccc5)c5ccccc5)CC4)ccc32)c2ccccc21 (centres unmarked) [MitoPY1ox]
subcellular localization (co-staining with MitoTracker Deep Red, LysoTracker Red) (HeLa cells): only MitoPY1 targets the mitochondria
fluorescence quantum yield Φ [2]: 0.405
extinction coefficient ε at 510 nm [2]: 22,300 M^−1 cm^−1

CC1(C)OB(c2ccc3c(c2)Oc2cc(B4OC(C)(C)C(C)(C)O4)ccc2N3)OC1(C)C [PR1, 3,7-Bis(pinacolatoboron)phenoxazine]
intracellular background fluorescence of probe-loaded cells before H2O2 (HEK cells; 5-10 μM probe, 2-10 min at 25° C.): virtually no background fluorescence
cell viability during imaging (HEK cells; after probe incubation and H2O2 treatment, brightfield): cells are viable throughout the experiments
membrane permeability / cell entry (HEK cells; live HEK cells): membrane-permeable
intracellular fluorescence after addition of H2O2 (HEK cells; probe-loaded cells, 10-100 μM H2O2): Striking increases in intracellular red fluorescence
higher response for H2O2 over .OH ([3]; 100 μM ROS, .OH from Fe2+ with H2O2): > 200 fold
higher response for H2O2 over .OtBu ([3]; 100 μM ROS, .OtBu from Fe2+ with TBHP): > 200 fold
higher response for H2O2 over NO ([3]; 100 μM ROS, NO delivered using SNOC): > 200 fold
higher response for H2O2 over O2− ([3]; 10 mM O2−, 100 μM H2O2): > 1000 fold
